Experiments:
[1] = system: serum cholesterol; test: Cholesterol lowering properties of the compound of Formula II in rats: serum cholesterol; assay type: in vivo, rat (Crl:CD(SD)BR VAF/Plus); details: for Group Mean Serum Cholesterol: single daily oral doses (gavage), at necropsy after 15-16 doses; for serum cholesterol (result in words): oral
Description: (§1) A homogeneous suspension of the compound of Formula II in aqueous methyl cellulose (aqueous methyl cellulose concentration: 0.4 percent weight/volume) was prepared for these studies and stored at ambient temperature conditions. The amount of the suspension fed to each rat was calculated to provide the desired dosage of the compound of Formula II (see below) for that rat.
(§2) Six-week-old rats (Rat/Crl:CD®(SD)BR VAF/Plus®, supplied by Charles River Laboratories, Kingston, N.Y.; ten rats per sex per group) were given single daily oral doses (via gavage tube) of the compound of Formula II (30, 100 or 300 mg/kg of body weight of the rat) as the above-stated suspension for 15 to 16 days. […] The rats were housed individually in suspended stainless steel wire mesh cages and were fed with a meal of Certified Rodent Diet® 5002 available from PMI® Feeds, Incorporated, St. Louis, Mo. Tap water was provided ad libitum during the study period. Blood was collected at necropsy over two days (after 15-16 doses), and serum chemistry parameters were measured.
(§3) The results obtained at necropsy (after 15-16 doses) are given in Table 1 for both the male and female rats: […]

[2] = system: serum triglyceride; test: Cholesterol lowering properties of the compound of Formula II in rats: serum triglycerides; assay type: in vivo, rat (Crl:CD(SD)BR VAF/Plus); details: for Group Mean Serum Triglyceride Concentrations: single daily oral doses (gavage)
Description: as §1, §2, §3

[3] = system: serum cholesterol; test: Cholesterol lowering properties of the compound of Formula II in monkeys: serum cholesterol; assay type: in vivo, cynomolgus monkey (Macaca fascicularis); details: for % change in group mean serum cholesterol from last pretest to after 14 doses: daily oral (gavage), 22 hours after 14th dose
Description: Similar to Example 2, a homogeneous suspension of the compound of Formula II in aqueous methyl cellulose (0.4 percent weight/volume) was prepared for these studies and stored at ambient temperature conditions. The amount of the suspension fed to each monkey was calculated to provide the desired dosage of the compound of Formula II (given below) for that monkey.
(§4) Adult cynomolgus monkeys (four per sex per group, Macaca fascicularis monkey, supplied by Charles River BRF Incorporated, Houston, Tex.) were given single daily oral doses (gavage) of the compound of Formula II (30, 100 or 300 mg/kg of body weight) in the form of the above-stated suspension for 16 to 18 days. […] The monkeys were fed with nutritionally adequate amounts of PMI Inc. Certified Primate Diet® #46 (available from PMI Feeds, Incorporated) daily, at least one hour after dosing was completed. Certified monkey treats were offered daily. Tap water was provided ad libitum. Blood was collected and serum chemistry parameters were measured twice pretest and after 14 daily doses (22 hours after the 14th dose).
Mild to moderate decreases in serum cholesterol, compared with pretest and concurrent and/or historical control data, occurred in all dosed monkeys. The decreases were generally dose-dependent, except that there was no real difference between mid- and high-dose females.

[4] = Plasma analysis to confirm absorption in rats; assay type: in vivo, rat (Crl:CD(SD)BR VAF/Plus); details: oral, plasma analysis after one and 14 doses
Description: as §2, with “Blood was collected at necropsy over two days (after 15-16 doses), and serum chemistry parameters were measured.” left out

[5] = Plasma levels and pharmacokinetics in monkeys; assay type: in vivo, cynomolgus monkey (Macaca fascicularis); details: oral, plasma levels after one and 16 doses
Description: as §4

## O=C(NCc1ccc(Cc2c[nH]cn2)cc1)Nc1cc(Cl)cc(Cl)c1 [compound of Formula II]
[1]; female rats, 30 mg/kg, control 29.7
  Group Mean Serum Cholesterol: 26.5 mg/dL
[1]; female rats, 100 mg/kg, control 29.7
  Group Mean Serum Cholesterol: 19.4 mg/dL
[1]; female rats, 300 mg/kg, control 29.7
  Group Mean Serum Cholesterol: 16.0 mg/dL
[1]; female rats, 100 or 300 mg/kg, compared with concurrent control
  serum cholesterol (result in words): Lower serum cholesterol concentrations
[1]; male rats, 30 mg/kg, control 34.7
  Group Mean Serum Cholesterol: 20.9 mg/dL
[1]; male rats, 100 mg/kg, control 34.7
  Group Mean Serum Cholesterol: 16.9 mg/dL
[1]; male rats, 300 mg/kg, control 34.7
  Group Mean Serum Cholesterol: 12.3 mg/dL
[1]; male rats, 30, 100 or 300 mg/kg
  serum cholesterol (result in words): dose-dependent lower serum cholesterol
[2]; female rats, 30 mg/kg, at necropsy after 15-16 doses, control 22.4
  Group Mean Serum Triglyceride Concentrations: 20.5 mg/dL
[2]; female rats, 100 mg/kg, after 15-16 doses, control 22.4, *group mean excludes individuals with values <10, actual mean would be lower
  Group Mean Serum Triglyceride Concentrations: 13.6 mg/dL
[2]; female rats, 300 mg/kg, after 15-16 doses, control 22.4, *group mean excludes individuals with values <10, actual mean would be lower
  Group Mean Serum Triglyceride Concentrations: 16.3 mg/dL
[2]; male and female rats, 100 or 300 mg/kg, oral
  serum triglyceride (result in words): Lower serum triglyceride concentrations
[2]; male rats, 30 mg/kg, at necropsy after 15-16 doses, control 40.7
  Group Mean Serum Triglyceride Concentrations: 37.2 mg/dL
[2]; male rats, 100 mg/kg, at necropsy after 15-16 doses, control 40.7
  Group Mean Serum Triglyceride Concentrations: 27.8 mg/dL
[2]; male rats, 300 mg/kg, at necropsy after 15-16 doses, control 40.7
  Group Mean Serum Triglyceride Concentrations: 21.2 mg/dL
[3]; all monkeys dosed with 30, 100 or 300 mg/kg, oral
  cholesterol (result in words): mildly to moderately decreased cholesterol
[3]; female monkeys, 30 mg/kg, control -03
  % change in group mean serum cholesterol from last pretest to after 14 doses: -24%
[3]; female monkeys, 100 mg/kg, control -03, *n=3, excludes No. 22F, sacrificed on Day 9
  % change in group mean serum cholesterol from last pretest to after 14 doses: -63%
[3]; female monkeys, 300 mg/kg, control -03
  % change in group mean serum cholesterol from last pretest to after 14 doses: -59%
[3]; male monkeys, 30 mg/kg, control +02
  % change in group mean serum cholesterol from last pretest to after 14 doses: -25%
[3]; male monkeys, 100 mg/kg, control +02
  % change in group mean serum cholesterol from last pretest to after 14 doses: -46%
[3]; male monkeys, 300 mg/kg, control +02
  % change in group mean serum cholesterol from last pretest to after 14 doses: -61%
[4]
  absorption (result in words): confirm absorption
[5]
  absorption (result in words): confirm absorption
